Source: patent US12258547B2, “Cell culture plate, method for preparing thereof and method for detecting a substance” (UPM-Kymmene Corporation, priority 2019, dated 2025)
Where a name gives a salt, the structure may show the parent alone.

Tests used:
BJ fibroblasts [1] = experiment: Experiments 2-3: HepaRG/BJ co-culture separated by GrowDex barrier, dosing via HepaRG, WST-1, BJ side; details: for MEAN absorbance at 450 nm / MEDIAN absorbance at 450 nm / viability, % of control: BJ cells
Description: (§1) Cell viability/cytotoxicity was always investigated using WST-1 assay. The assay principle is based on the conversion of the tetrazolium salt WST-1 into a colored dye by mitochondrial dehydrogenase enzymes. The soluble salt is released into the media. Within a given time period, the reaction produces a color change which is directly proportional to the amount of mitochondrial dehydrogenase in a given culture. As a result, the assay actually measures the net metabolic activity of cells. Theoretically, this is reflective of cell number • the more cells, the more dehydrogenase available to reduce the reagent. […]
(§2) The mean absorbances were calculated separately for each well and both sides of the barrier. The decision on the acceptability of the data was made individually for each well. The data of the well was accepted provided that the barrier functioned properly, i.e. the ratio of HepaRG and BJ absorbances at 450 nm was >2.0.
(§3) GrowDex barriers were prepared to split the wells of a 24-well plate into two “equally sized” compartments as follows. 250 μl GrowDex was pipetted to the wells (using positive displacement pipette) to construct the first layer of the barrier. The barriers were left to dry in the laminar hood for 1 hr with the lid open. Then a second layer was pipetted on the top of the first layer.
(§4) BJ cell suspension was prepared at a density of 70 000 cells/ml BJ cell culture medium, and 150 μl of this suspension was pipetted to the right side of the barriers resulting in 10 500 cells/well.
(§5) HepaRG suspension was prepared at a density of 2 million HepaRG cells/ml HepaRG® Thawing/Plating/General Purpose Medium 670. Medium was removed from the left side of the barrier. 150 μl HepaRG suspension, i.e., 300 000 cells was added to each well. The plate was gently agitated in back-and-forth and side-to-side manner, and the homogeneity of the cell distribution was ensured visually. The plate was placed back into cell culture incubator and the cells were let recover for 4 hrs before exposure.
(§6) Medium was carefully removed from the HepaRG cells (left side of the barrier), and replaced with 75 μl/well HepaRG TOX Medium/well. This was performed one well at a time.

BJ fibroblasts [2] = experiment: Experiment 4: BJ cells exposed to direct or HepaRG-conditioned paracetamol, WST-1; assay type: cell-based, Human; details: 500 μg/ml, conditioned 20 hrs with HepaRG, 24 hrs exposure
Protocol: The HepaRG cells that were left from Experiment 3 were seeded to a 25 cm^2 cell culture flask, and cultured for 1 week. Medium (HepaRG induction medium) was renewed twice during the week.
The medium was removed from HepaRG cells (grown in a 25 cm^2 flask), and replaced by 2.5 ml of HepaRG TOX medium. Then 2.5 ml of 1 mg/ml paracetamol prepared in HepaRG TOX medium was added to the flask (final paracetamol concentration 500 μg/ml). HepaRG cells were incubated with paracetamol for 20 hrs.
The medium was removed from BJ cells, and replaced by 500 μg/ml paracetamol in BJ chemical dilution medium or 500 μg/ml HepaRG-conditioned-paracetamol in HepaRG TOX-medium. BJ chemical dilution medium and HepaRG TOX medium served as vehicle controls. All treatments were tested in 16 parallel wells. The exposure time was 24 hrs.
After the exposure, 10 μl WST-1 reagent was added to the wells. The plate was incubated for 2 hrs, and the absorbance was read at 450 nm.

BJ fibroblasts [3] = experiment: Experiment 1: WST-1 viability of BJ fibroblast monoculture, direct exposure; details: for toxicity to BJ fibroblast monocultures: drug as such, without HepaRG treatment
Description: (§7) Cell viability/cytotoxicity was always investigated using WST-1 assay. The assay principle is based on the conversion of the tetrazolium salt WST-1 into a colored dye by mitochondrial dehydrogenase enzymes. The soluble salt is released into the media. Within a given time period, the reaction produces a color change which is directly proportional to the amount of mitochondrial dehydrogenase in a given culture. As a result, the assay actually measures the net metabolic activity of cells. Theoretically, this is reflective of cell number • the more cells, the more dehydrogenase available to reduce the reagent.
(§8) BJ cell suspension was prepared at a density of 40 000 cells/ml in BJ cell culture medium. 100 μl of this suspension was pipetted to a 96-well plate resulting in 4000 cells/well.
(§9) Selegiline and paracetamol dilutions were prepared on the day of use. First, 1 mg/ml stocks were prepared from both drugs, then 200 and 20 μg/ml dilutions were prepared from paracetamol stock, and 200, 20, 10, 5 and 2 μg/ml dilutions from selegiline stock. The stocks and dilutions were prepared in BJ chemical dilution medium. Selegiline toxicity was studied more extensively than paracetamol, because there was no previous data of selegiline toxicity to BJ fibroblasts. Instead, paracetamol toxicity to human BJ fibroblasts has been extensively studied.
(§10) BJ cell culture medium was removed from the cells by dumping and blotting the plate carefully on sterile towel. Immediately, 50 μl BJ cell culture medium was added to all wells, and then 50 μl test item dilutions (selegiline or paracetamol) or 50 μl vehicle control. […] BJ chemical dilution medium was used as vehicle control. […] One of the plates was incubated for 3 hrs and the other for 20 hrs.
(§11) After the 3-hours or 20 hrs incubation, 10 μl WST-1 reagent was added into the wells. The plate was incubated for 2 hrs, thereafter absorbance was read at 450 nm.
(§12) Blank values (contained all reagents, including drugs, but no cells) were subtracted from the absorbance data. […] The statistical difference between untreated control and treated cells was assessed using t-test (SigmaPiot).

HepaRG cells = experiment: Experiments 2-3: HepaRG/BJ co-culture separated by GrowDex barrier, dosing via HepaRG, WST-1, HepaRG side; assay type: cell-based; details: for MEAN absorbance at 450 nm / MEDIAN absorbance at 450 nm / viability, % of control: HepaRG
Protocol: (§13) The soluble salt is released into the media.
(§14) Eight barriers were prepared using this method. […] Four barriers were prepared using this method.
(§15) The plate was incubated for 1 hr.
(§16) This was performed one well at a time.
(§17) Absorbance was read using the Multipoint measurement.

[4] = as above; assay type: cell-based; details: human
Protocol: as §13, §14, §15, §16, §17

[5] = Experiments 2-3: HepaRG/BJ co-culture separated by GrowDex barrier, dosing via HepaRG, WST-1, BJ side; details: human, decrease of BJ viability, 10 μg/ml via HepaRG, 3 hrs
Description: as §1, §2, §3, §4, §5, §6

[6] = Experiment 1: WST-1 viability of BJ fibroblast monoculture, direct exposure; details: human
Description: as §7, §8, §9, §10, §11, §12

[7] = 250 μg/ml paracetamol via HepaRG, 4 hrs
[8] = 250 μg/ml paracetamol via HepaRG, 20 hrs
[9] = 500 μg/ml paracetamol via HepaRG, 4 hrs
[10] = 500 μg/ml paracetamol via HepaRG, 20 hrs
[11] = 1 μg/ml selegiline via HepaRG, 3 hrs
[12] = 5 μg/ml selegiline via HepaRG, 3 hrs
[13] = 10 μg/ml selegiline via HepaRG, 3 hrs

CC(=O)Nc1ccc(O)cc1 [paracetamol, Paracetamol]
increase of BJ cell viability (BJ fibroblasts [1]; 250 μg/ml via HepaRG, 4 hrs): ~40% | increase of BJ viability (BJ fibroblasts [1]; 250 μg/ml via HepaRG, 20 hrs): ~30% | effect on BJ cell viability (BJ fibroblasts [1]; 500 μg/ml via HepaRG, short exposure (4 hrs)): did not affect cell viability | MEAN absorbance at 450 nm (BJ fibroblasts [1]; [7]): 1.685 | MEDIAN absorbance at 450 nm (BJ fibroblasts [1]; [7]): 1.777 | viability, % of control (BJ fibroblasts [1]; [7]): 140.89 % of control | MEAN absorbance at 450 nm (BJ fibroblasts [1]; [8]): 1.777 | MEDIAN absorbance at 450 nm (BJ fibroblasts [1]; [8]): 1.801 | viability, % of control (BJ fibroblasts [1]; [8]): 128.23 % of control | MEAN absorbance at 450 nm (BJ fibroblasts [1]; [9]): 1.188 | MEDIAN absorbance at 450 nm (BJ fibroblasts [1]; [9]): 1.164 | viability, % of control (BJ fibroblasts [1]; [9]): 99.34 % of control | MEAN absorbance at 450 nm (BJ fibroblasts [1]; [10]): 1.356 | MEDIAN absorbance at 450 nm (BJ fibroblasts [1]; [10]): 1.325 | viability, % of control (BJ fibroblasts [1]; [10]): 97.89 % of control | effect of HepaRG-treatment on BJ fibroblast viability (BJ fibroblasts [2]): minor effect | increase of BJ cell viability (BJ fibroblasts [3]; 500 μg/ml, 3 hrs exposure): ~9% | toxicity to BJ fibroblast monocultures (BJ fibroblasts [3]): not toxic | effect on viability of BJ fibroblasts (BJ fibroblasts [3]; up to 500 μg/ml, 3 and 20 hrs): did not reduce the viability | effect on HepaRG cell viability (HepaRG cells; 500 μg/ml, short exposure (4 hrs)): did not affect cell viability | MEAN absorbance at 450 nm (HepaRG cells; 250 μg/ml paracetamol, 4 hrs): 3.571 | MEDIAN absorbance at 450 nm (HepaRG cells; 250 μg/ml paracetamol, 4 hrs): 3.513 | viability, % of control (HepaRG cells; 250 μg/ml paracetamol, 4 hrs): 85.58 % of control | MEAN absorbance at 450 nm (HepaRG cells; 250 μg/ml paracetamol, 20 hrs): 4.196 | MEDIAN absorbance at 450 nm (HepaRG cells; 250 μg/ml paracetamol, 20 hrs): 4.239 | viability, % of control (HepaRG cells; 250 μg/ml paracetamol, 20 hrs): 105.78 % of control | MEAN absorbance at 450 nm (HepaRG cells; 500 μg/ml paracetamol, 4 hrs): 4.074 | MEDIAN absorbance at 450 nm (HepaRG cells; 500 μg/ml paracetamol, 4 hrs): 4.134 | viability, % of control (HepaRG cells; 500 μg/ml paracetamol, 4 hrs): 97.65 % of control | MEAN absorbance at 450 nm (HepaRG cells; 500 μg/ml paracetamol, 20 hrs): 3.606 | MEDIAN absorbance at 450 nm (HepaRG cells; 500 μg/ml paracetamol, 20 hrs): 3.771 | viability, % of control (HepaRG cells; 500 μg/ml paracetamol, 20 hrs): 90.91 % of control | cytotoxicity at 4 h, 250 μg/ml ([4]; 250 μg/ml, 4 hrs, read-out: decrease of HepaRG viability): ~15% | cytotoxicity at 20 h, 500 μg/ml ([4]; highest concentration (500 μg/ml), 20 hrs, read-out: reduction of HepaRG viability): ~10%

C#CCN(C)[C@H](C)Cc1ccccc1 [selegiline, Selegiline hydrochloride]
effect on BJ viability (BJ fibroblasts [1]; 1 and 5 μg/ml via HepaRG, 3 hrs): seemed to increase | MEAN absorbance at 450 nm (BJ fibroblasts [1]; [11]): 1.429 | MEDIAN absorbance at 450 nm (BJ fibroblasts [1]; [11]): 1.539 | viability, % of control (BJ fibroblasts [1]; [11]): 141.43 % of control | MEAN absorbance at 450 nm (BJ fibroblasts [1]; [12]): 1.219 | MEDIAN absorbance at 450 nm (BJ fibroblasts [1]; [12]): 1.243 | viability, % of control (BJ fibroblasts [1]; [12]): 120.69 % of control | MEAN absorbance at 450 nm (BJ fibroblasts [1]; [13]): 0.760 | MEDIAN absorbance at 450 nm (BJ fibroblasts [1]; [13]): 0.676 | viability, % of control (BJ fibroblasts [1]; [13]): 75.19 % of control | cytotoxicity at 3 h, 10 μg/ml [5]: ~25% | toxicity to BJ fibroblast monocultures (BJ fibroblasts [3]): not toxic | increase of BJ fibroblast viability (BJ fibroblasts [3]; lowest selegiline concentrations): ~10% | cytotoxicity at 500 μg/ml [6]: ~10% | effect on HepaRG viability (HepaRG cells; 1 and 5 μg/ml, 3 hrs): seemed to increase | MEAN absorbance at 450 nm (HepaRG cells; 1 μg/ml selegiline, 3 hrs): 3.486 | MEDIAN absorbance at 450 nm (HepaRG cells; 1 μg/ml selegiline, 3 hrs): 3.794 | viability, % of control (HepaRG cells; 1 μg/ml selegiline, 3 hrs): 114.23 % of control | MEAN absorbance at 450 nm (HepaRG cells; 5 μg/ml selegiline, 3 hrs): 3.344 | MEDIAN absorbance at 450 nm (HepaRG cells; 5 μg/ml selegiline, 3 hrs): 3.588 | viability, % of control (HepaRG cells; 5 μg/ml selegiline, 3 hrs): 109.57 % of control | MEAN absorbance at 450 nm (HepaRG cells; 10 μg/ml selegiline, 3 hrs): 2.892 | MEDIAN absorbance at 450 nm (HepaRG cells; 10 μg/ml selegiline, 3 hrs): 3.078 | viability, % of control (HepaRG cells; 10 μg/ml selegiline, 3 hrs): 94.77 % of control | cytotoxicity at 3 h, 10 μg/ml ([4]; 10 μg/ml, 3 hrs, read-out: decrease of HepaRG viability): ~5%
